# Several values for one entry are separate records, joined by “and”; a condition that tells them apart may be missing. Equal entries are not always repeated.
# Key:
# [1] = test system: IRS-2; assay: 32P metabolic labeling and immunoprecipitation of IRS-2, Mv1Lu cells; type: cell-based, mink
# [2] = test system: H1299/LRP cells; assay: Cell growth (cell number), H1299/LRP cells; type: cell-based, human; conditions: TGF-β1 20 pM or IGFBP-3 1 μg/ml, 3-day
# [3] = test system: 32D/IR/IRS-2 cells; assay: [methyl-3H] thymidine incorporation, 32D/IR/IRS-2 cells; type: cell-based, murine; conditions: 32D cells expressing IRS-2 and insulin receptor
# [4] = test system: Mv1Lu cells; assay: [methyl-3H] thymidine incorporation (DNA synthesis), Mv1Lu cells; type: cell-based, mink; conditions: IGFBP-3 0.5 μg/ml, Mv1Lu
# [5] = test system: DR26 cells; assay: [methyl-3H] thymidine incorporation, DR26 cells; type: cell-based, mink; conditions: IGFBP-3 0.5 μg/ml, DR26
# Method: (A,B) DR26 cells were incubated with various concentrations as indicated of IGFBP-3 in the absence (A) and presence (B) of various concentrations of insulin. After 18 hr at 37° C., the [methyl-^3H] thymidine incorporation into cellular DNA was determined. (C,D,E) Mv1Lu, DR26 and R1B cells metabolically labeled with ^[…]-orthophosphate for 2 hr were treated with IGFBP-3 (1:g/ml) or insulin (10 nM) (C). DR26 cells metabolically labeled with ^[…]-orthophosphate for 2 hr were treated with or without IGFBP-3 (1 μg/ml) in the presence of various concentrations of TGF-β1 as indicated (D). Mv1Lu cells expressing αIβI and αIβII chimeric receptors (MB102-16 and MB102-9 cells, respectively) metabolically labeled with ^[…]-orthophosphate for 2 hr were treated with or without IGFBP-3 (1 μg/ml) or GM-CSF (1 nM) (E). After 2 hr at 37° C. (in the absence of […]-orthophosphate in the medium), the ^[…]-labeled IRS-2 was immunoprecipitated and analyzed by 7.5% SDS-PAGE and autoradiography. […]
# Mv1Lu cells were plated on 24-well clustered dishes and incubated with various concentrations of TGF-β1 or IGFBP-3 in DMEM containing 0.1% fetal calf serum. After incubation at 37° C. for 18 hr, the cells were pulse-labeled with 1 μCi of [methyl-^3H]thymidine at 37° C. for 2 hr and the [methyl-^3H] thymidine incorporation into cellular DNA was determined as described previously (59). […]
# [6] = test system: IRS-2; assay: 32P metabolic labeling and immunoprecipitation of IRS-2, MB102-16 cells; type: cell-based, mink; conditions: MB102-16 cells (αIβI); IGFBP-3 1 μg/ml, GM-CSF 1 nM
# [7] = test system: H1299/LRP cells; assay: [methyl-3H] thymidine incorporation, H1299/LRP cells; type: cell-based, human; conditions: various concentrations
# [8] = target: acidic pH binding sites (Neogale vison, UniProt A0A8C7BSJ2); assay: Specific binding of 125I-ligands to Mv1Lu cells at acidic pH; set-up: species or system mink; conditions: Mv1Lu cells; EGTA/BAPTA- or GST-RAP-sensitive binding, 0° C.
# Chain of acidic pH binding sites (A0A8C7BSJ2 entry or part of it): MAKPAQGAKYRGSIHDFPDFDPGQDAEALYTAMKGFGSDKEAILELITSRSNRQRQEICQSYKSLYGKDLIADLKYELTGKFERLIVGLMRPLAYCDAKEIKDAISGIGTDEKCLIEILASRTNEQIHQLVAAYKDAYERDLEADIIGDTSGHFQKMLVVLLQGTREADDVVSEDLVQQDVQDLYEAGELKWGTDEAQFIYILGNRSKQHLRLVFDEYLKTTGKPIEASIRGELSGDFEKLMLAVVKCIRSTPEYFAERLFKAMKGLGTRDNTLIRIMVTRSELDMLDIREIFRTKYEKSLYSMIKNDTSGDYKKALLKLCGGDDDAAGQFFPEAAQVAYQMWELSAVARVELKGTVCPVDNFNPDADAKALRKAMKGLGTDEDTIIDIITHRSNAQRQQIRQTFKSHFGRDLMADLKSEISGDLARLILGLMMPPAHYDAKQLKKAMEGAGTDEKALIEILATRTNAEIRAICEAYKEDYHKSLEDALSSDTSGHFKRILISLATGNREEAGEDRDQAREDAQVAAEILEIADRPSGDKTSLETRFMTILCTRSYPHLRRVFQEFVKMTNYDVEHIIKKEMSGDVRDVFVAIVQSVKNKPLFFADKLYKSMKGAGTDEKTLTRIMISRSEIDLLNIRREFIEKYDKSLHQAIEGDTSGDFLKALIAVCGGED
# [9] = test system: H1299/vector cells; assay: [methyl-3H] thymidine incorporation, H1299/vector cells; type: cell-based, human; conditions: various concentrations
# [10] = test system: IRS-2; assay: Determination of tyrosine phosphorylation of IRS-2, Mv1Lu cells; type: cell-based, mink
# Method: FIG. 15 depicts tyrosine phosphorylation of IRS-2 in Mv1Lu cells treated with IGFBP-3 and insulin. Cells were stimulated with or without insulin (10 nM) for 10 min and then treated with or without IGFBP-3 (1 μg/ml) for 1 hr (A). On the other hand, cells pretreated with or without IGFBP-3 (1 μg/ml) for 2 hr and then stimulated with insulin (10 nM) for 10 min (B, lane 1 and lane 2, respectively). In a parallel experiment, cells were treated with insulin (10 nM) in the presence and absence of IGFBP-3 (1 μg/ml) for 2 hr (B, lane 3 and lane 4, respectively). […] The arrow indicates the location of tyrosine-phosphorylated IRS-2.
# Mv1Lu cells were plated on 30-mm dishes at a cell density of 4×10^4/cm^2 in DMEM containing 10% fetal calf serum. The cells in serum-free DMEM were pre-treated with IGFBP-3 (1 μg/ml) for 1 or 2 hr and then treated with insulin (10 nM) for 10 min or treated with insulin (10 nM) for 10 min and then treated with IGFBP-3 (1 μg/ml) for a further 2 hr, or treated simultaneously with insulin (10 nM) and IGFBP-3 (1 μg/ml) for 2 hr. The experiments were carried out at 37° C. The cell lysates were subjected to immunoprecipitation using anti-IRS-2 IgG followed by 7.5% SDS-PAGE and Western blot analysis using anti-phosphotryosine IgG and the ECL system (Santa Cruz).
substance,measurement,setting,value
IGFBP-3: human insulin-like growth factor binding protein-3 expressed in E. Coli,Incubation time after which mobility change of 32P-labeled IRS-2 occurred,"[1]; IGFBP-3 1 μg/ml, Mv1Lu",0.5 h
same,Half-optimal concentration (ED50) to induce electrophoretic mobility change of 32P-labeled IRS-2,[1]; Mv1Lu cells,0.1 to 0.3 µg/mL
same,Induction of specific dephosphorylation (mobility change) of 32P-labeled IRS-2,"[1]; Mv1Lu, IGFBPs 1 μg/ml, TGF-β1 20 pM",induces specific dephosphorylation
same,Effect on cell growth,[2],inhibited
same,Growth inhibitory response (DNA synthesis),[3],potent growth inhibitory response
same,Inhibition of DNA synthesis,[4],~30% and 30-50%
same,Inhibition of DNA synthesis,[5],~80%
same,Specific dephosphorylation (mobility change) of IRS-2,[6],induced specific dephosphorylation
same,Effect on DNA synthesis,[7],inhibited
same,pH of optimal/maximal binding,[8],5
same,Effect on DNA synthesis,[9],acted as mitogens or growth stimulators
same,Effect on insulin-stimulated tyrosine phosphorylation of IRS-2,"[10]; IGFBP-3 pretreatment 2 hr, then insulin 10 nM 10 min",diminished
same,Effect on insulin-stimulated tyrosine phosphorylation of IRS-2,"[10]; insulin 10 nM 10 min, then IGFBP-3 1 μg/ml 1 hr",failed to affect
same,Effect on insulin-stimulated tyrosine phosphorylation of IRS-2,"[10]; simultaneous insulin 10 nM and IGFBP-3 1 μg/ml, 2 hr",enhancement

# Source: US7741283B2, “Compositions and methods for inhibiting cell proliferation” (St. Louis University, priority 2003, dated 2010)
